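Dose response: 5 concentrations. Exposure: 48 h. Format: 96-well plates. Endpoint: linear interpolation; highest concentration if not reached. TGI: total growth inhibition.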
Assays:
Assay in all cases: NCI-60 cell line screen, 48 h
A549 NSCLC = system: A549 NSCLC
HT29 colon = system: HT29 colon
NCI-H23 lung = system: NCI-H23 lung
SN12C renal = system: SN12C renal
SF-295 CNS = system: SF-295 CNS
UACC-257 melanoma = system: UACC-257 melanoma
SF-539 CNS = system: SF-539 CNS
EKVX NSCLC = system: EKVX NSCLC
CAKI-1 renal = system: CAKI-1 renal
RXF 393 renal = system: RXF 393 renal

SMILES | TGI (A549 NSCLC) [µM] | TGI (HT29 colon) [µM] | TGI (NCI-H23 lung) [µM] | TGI (SN12C renal) [µM] | TGI (SF-295 CNS) [µM] | TGI (UACC-257 melanoma) [µM] | TGI (SF-539 CNS) [µM] | TGI (EKVX NSCLC) [µM] | TGI (CAKI-1 renal) [µM] | TGI (RXF 393 renal) [µM]
O=C1CSC(c2cccs2)N1c1nc2cc3sc(N4C(=O)CSC4c4cccs4)nc3cc2s1 (stereo unspecified) | > 50 | > 50 | > 50 | > 50 | > 50 | > 50 | 3.6 | > 50 | > 50 | > 50
Nc1ccc2[nH]c(-c3cccc(Cl)c3)cc(=O)c2c1 | > 100 | 29.5 | > 100 | > 100 | – | > 100 | 5.15 | > 100 | – | –
O=C1C=CC(=O)c2c(O)c(NCCc3ccc(O)cc3)c(Cl)c(O)c21 | > 10 | > 10 | > 10 | > 10 | > 10 | > 10 | > 10 | > 10 | > 10 | –
CC(C)(C)C1CCC2(CC1)c1[nH]c3ccccc3c1C1(CCC(C(C)(C)C)CC1)c1[nH]c3ccccc3c12 (stereo unspecified) | > 100 | > 100 | > 100 | > 100 | > 100 | > 100 | > 100 | > 100 | > 100 | > 100
CNC(=O)N(CCC#N)[C@H]1CCCC[C@@H]1N(C(=O)NC)c1ccccc1 | > 100 | > 100 | > 100 | > 100 | > 100 | > 100 | > 100 | > 100 | > 100 | > 100
O=c1oc2cc(O)ccc2c(O)c1C(c1ccc(C(c2c(O)c3ccc(O)cc3oc2=O)c2c(O)c3ccc(O)cc3oc2=O)cc1)c1c(O)c2ccc(O)cc2oc1=O | > 100 | > 100 | > 100 | > 100 | > 100 | > 100 | > 100 | > 100 | > 100 | > 100
O=C(Cc1ccccc1)NN1C(=O)/C(=C\c2ccc([N+](=O)[O-])cc2)SC1=Nc1ccccc1 | > 100 | > 100 | > 100 | > 100 | > 100 | > 100 | > 100 | > 100 | – | > 100
COc1ccc(-c2c(C#N)c(N)nc3c2CCS(=O)(=O)c2ccccc2-3)cc1 | > 100 | > 100 | > 100 | > 100 | – | > 100 | – | – | > 100 | –
c1ccc(/C(=N/Nc2ccccn2)c2ncccn2)cc1 | > 76.9 | > 47.4 | > 37.6 | > 100 | > 44.6 | – | 46 | 5.73 | 5.69 | > 100
CCC(=O)Oc1c2ccsc2c(OC(=O)CC)c2ccsc12 | 4.51 | 5.56 | 0.364 | 1.16 | 0.675 | 0.333 | 0.472 | 2.51 | 6.13 | 2.69
N#Cc1cc2c(cc1Cl)Sc1nccn1S2(=O)=O | 28.7 | 3.91 | 3.35 | 20.8 | 12.2 | 5.81 | 12.2 | 35.9 | 3.6 | 15.5
COc1cc(I)c2c3c1OC1C34CCN(C)C(C2)C4=CC(I)C1(OC)OC (stereo unspecified) | > 100 | 83.6 | 54.7 | 31.9 | > 100 | 49.4 | 40.1 | > 100 | 93.8 | 38.2
CCOC(=O)/C(C#N)=N\Nc1ccc(-n2c(C)nc3ccccc3c2=O)cc1 | > 100 | > 100 | > 100 | > 100 | > 100 | > 100 | > 100 | > 100 | > 100 | –
Brc1cccc(N=NN2CCCC2)c1 | – | – | > 100 | > 100 | > 100 | > 100 | > 100 | > 100 | > 100 | > 100
Cn1c2ccccc2n2c(=O)c3cc([N+](=O)[O-])ccc3c(C#N)c12 | > 100 | > 100 | > 100 | – | > 100 | > 100 | > 100 | > 100 | – | > 100
O=C1C=C(c2ccccc2)O/C1=C/C(=O)c1ccc(Cl)cc1 | – | 36.5 | – | 29.9 | – | 35.6 | 43.4 | > 100 | 27.6 | 34.7
O=[N+]([O-])c1ccc(NC(=S)N=Nc2c(O)[nH]c3ccc(Br)cc23)cc1 | – | 24.9 | 12.9 | 23.8 | 22 | 29.8 | 82.9 | – | 20.6 | 26.5
COCC1OC(N2C(=O)NC(=O)[C@@H]3C=C4CCCCC4=C[C@@H]32)C(OC)C1OC (stereo partly specified) | > 100 | > 100 | – | > 100 | > 100 | > 100 | > 100 | > 100 | – | –
Cc1cc2ncc3c(=O)n(NS(=O)(=O)c4ccc(N)cc4)ccc3n2n1 | > 100 | > 100 | > 100 | > 100 | > 100 | > 100 | > 100 | > 100 | > 100 | –
CCN1CCC(O)(C(C(=O)O)c2ccccc2)CC1 (stereo unspecified) | > 100 | > 100 | > 100 | – | > 100 | > 100 | – | > 100 | > 100 | > 100
OC1(c2ccc(Cl)cc2)c2ccc3ccccc3c2C2=N[C@H]3CCCC[C@@H]3N21 (stereo partly specified) | > 100 | – | > 100 | > 100 | 18.1 | – | 43.7 | 24 | 67.1 | 20.8
COC(=O)c1ccc(C=Nc2ccc(S(N)(=O)=O)cc2)cc1 | > 100 | > 100 | – | > 100 | > 100 | > 100 | > 100 | > 100 | > 100 | > 100
